Source: article PMC10053710, “Influence of Lipidation Pattern of the KR12 Fragment of Peptide LL-37 on Its Antibacterial and Hemolytic Activities” (International Journal of Molecular Sciences, 2023)
Values after ≈ are worked out from the molar mass of the structure shown. Where a SMILES comes first, the peptide text is derived from it. Where no end group is shown, it is not given here. The star is where a group is joined. Butanoyl(4-Ph) = O=C(CCCc1ccccc1)*; Octanoyl = CCCCCCCC(=O)*

What was measured:
[1] = system: Enterococcus faecium ATCC 700221; assay type: cell-based; details: ATCC 700221, 18 h
Method: (§1) Tests of the antibacterial activity were carried out as we just described. Briefly, for assays, the following strains of ESKAPE bacteria were chosen: Acinetobacter baumannii ATCC BAA-1605, Enterococcus faecium ATCC 700221, Klebsiella aerogenes ATCC 13048 (formerly Enterobacter aerogenes), Klebsiella pneumoniae ATCC 700603, and Pseudomonas aeruginosa ATCC 9027. Moreover, the reference strains of Staphylococcus aureus were used: S. aureus ATCC 25923, S. aureus ATCC 6538, S. aureus ATCC 33591 (MRSA), S. aureus ATCC 9144, and S. aureus ATCC 12598. Before experiments, all the strains were stored at −80 °C in Roti®-Store cryo vials (Carl Roth GmbH, Karlsruhe, Germany). To evaluate the activity of the compounds, bacteria were transferred into fresh Mueller–Hinton medium (Becton Dickinson, Warszawa, Poland) and incubated for 24 h at 37 °C. In the next step, bacterial inoculums were seeded on Mueller–Hinton agar plates (BioMaxima SA, Lublin, Poland) and incubated again for 24 h. The MIC values were determined using the broth microdilution method according to the Clinical and Laboratory Standards Institute Protocol. The initial inoculums of bacteria (0.5 × 10^5 colony forming units (CFU)/mL) prepared in Mueller–Hinton broth were exposed to the ranging concentrations of peptides (1–512 µg/mL). The experiments were conducted on 96-well microtiter plates, with a final volume of 100 µL. The inoculum densities were checked spectrophotometrically (Multiskan™ GO Microplate Spectrophotometer, Thermo Scientific, Waltham, MA, USA) at 600 nm. The results were read after incubation for 18 h at 37 °C. The MIC values were the lowest concentration at which a visible growth of microorganisms was inhibited. All experiments were conducted in triplicate. Moreover, positive (growth) and negative (sterility) controls were included.

[2] = system: Klebsiella aerogenes ATCC 13048; assay type: cell-based; details: ATCC 13048, 18 h
Method: as §1

[3] = system: Klebsiella pneumoniae ATCC 700603; assay type: cell-based; details: ATCC 700603, 18 h
Method: as §1

[4] = system: Pseudomonas aeruginosa ATCC 9027; assay type: cell-based; details: ATCC 9027, 18 h
Method: as §1

[5] = system: S. aureus ATCC 12598; assay type: cell-based, Staphylococcus aureus; details: ATCC 12598, 18 h
Method: as §1

[6] = system: S. aureus ATCC 25923; assay type: cell-based, Staphylococcus aureus; details: ATCC 25923, 18 h
Method: as §1

[7] = system: S. aureus ATCC 33591 (MRSA); assay type: cell-based, Staphylococcus aureus; details: ATCC 33591, 18 h
Method: as §1

[8] = system: S. aureus ATCC 9144; assay type: cell-based, Staphylococcus aureus; details: ATCC 9144, 18 h
Method: as §1

[9] = 18 h
[10] = system: S. aureus ATCC 6538; assay type: cell-based, Staphylococcus aureus; details: ATCC 6538, 18 h
Method: as §1

[11] = system: human red blood cells (hRBCs); assay: Hemolysis assay; details: 4% (v/v) erythrocytes in PBS, peptides 1–512 µg/mL, 1 h at 37 °C, hemoglobin at 540 nm
Method: To facilitate a comparison of hemolytic activity between the analogs, MHC5 values were determined. MHC5 is the minimum hemolytic concentration of the compounds that caused the 5% hemolysis of hRBCs.
Briefly, the fresh hRBCs with EDTA as anticoagulant were rinsed three times with PBS through centrifugation at 800× g for 10 min and resuspended in PBS. The serial dilution of peptides (1–512 µg/mL) was prepared in PBS on 96-well plates. Then, the stock RBCs solution was added to the plates to reach a final volume of 100 µL with a 4% concentration of erythrocytes (v/v). The control wells for 0 (RBCs in PBS) and 100% (RBCs in 1% Triton-X 100) hemolysis were also prepared. Then, the plates were incubated for 1 h at 37 °C and centrifuged at 800× g for 10 min at 4 °C (Sorvall ST 16R Centrifuge, Thermo Scientific, Waltham, MA, USA). After centrifugation, the supernatant was carefully transferred to new microtiter plates and the release of hemoglobin was measured at 540 nm (Multiskan™ GO Microplate Spectrophotometer, Thermo Scientific, Waltham, MA, USA). The percentage of hemolysis was calculated based on wells with 100% hemolysis.

[12] = 100% = 1% Triton-X 100, ≥ means less than 5% hemolysis up to 512 µg/mL

Compound | MIC E. faecium [1] [µg/mL] | MIC K. aerogenes [2] [µg/mL] | MIC K. pneumoniae [3] [µg/mL] | MIC P. aeruginosa [4] [µg/mL] | MIC S. aureus 12598 [5] [µg/mL] | MIC S. aureus 25923 [6] [µg/mL] | MIC S. aureus 33591 [7] [µg/mL] | MIC S. aureus 9144 [8] [µg/mL] | MIC A. baumannii [9] [µg/mL] | MIC S. aureus 6538 [10] [µg/mL] | MHC5 (minimum hemolytic concentration causing 5% hemolysis of hRBCs) ([11]; fresh batch of blood (footnote a)) | MHC5 (minimum hemolytic concentration causing 5% hemolysis of hRBCs) [11, 12] [µg/mL]
CCCCCCCC(=O)NCCCC[C@H](NC(=O)CCCCCCC)C(=O)N[C@@H](CCCNC(=N)N)C(=O)N[C@H](C(=O)N[C@H](C(=O)N[C@@H](CCC(N)=O)C(=O)N[C@@H](CCCNC(=N)N)C(=O)N[C@H](C(=O)N[C@@H](CCCCN)C(=O)N[C@@H](CC(=O)O)C(=O)N[C@@H](Cc1ccccc1)C(=O)N[C@@H](CC(C)C)C(=O)N[C@@H](CCCNC(=N)N)C(N)=O)[C@@H](C)CC)C(C)C)[C@@H](C)CC [IX, C8^α,C8^ε-KR12-NH2] (Octanoyl-K(Octanoyl)RIVQRIKDFLR-NH2) | 16 (≈ 8.78 µM) | 512 (≈ 281 µM) | >512 | >512 | 256 (≈ 140 µM) | 512 (≈ 281 µM) | 256 (≈ 140 µM) | 256 (≈ 140 µM) | 512 (≈ 281 µM) | – | – | –
CC[C@H](C)[C@H](NC(=O)[C@H](CCCNC(=N)N)NC(=O)[C@H](CCC(N)=O)NC(=O)[C@@H](NC(=O)[C@@H](NC(=O)[C@H](CCCNC(=N)N)NC(=O)[C@H](CCCCN)NC(=O)CCCc1ccccc1)[C@@H](C)CC)C(C)C)C(=O)N[C@@H](CCCCN)C(=O)N[C@@H](CC(=O)O)C(=O)N[C@@H](Cc1ccccc1)C(=O)N[C@@H](CC(C)C)C(=O)N[C@@H](CCCNC(=N)N)C(N)=O [XVIII, 4-Phenylbutanoic acid-KR12-NH2] ({Butanoyl(4-Ph)}-KRIVQRIKDFLR-NH2) | 8 (≈ 4.66 µM) | 32 (≈ 18.6 µM) | 16 (≈ 9.32 µM) | 64 (≈ 37.3 µM) | 32 (≈ 18.6 µM) | 32 (≈ 18.6 µM) | 16 (≈ 9.32 µM) | 8 (≈ 4.66 µM) | 4 (≈ 2.33 µM) | 32 (≈ 18.6 µM) | 128 ^a µg/mL | –
CCCCCCCC(=O)N[C@@H](CCCNC(=N)N)C(=O)N[C@@H](CC(C)C)C(=O)N[C@@H](Cc1ccccc1)C(=O)N[C@@H](CC(=O)O)C(=O)N[C@@H](CCCCN)C(=O)N[C@H](C(=O)N[C@@H](CCCNC(=N)N)C(=O)N[C@@H](CCC(N)=O)C(=O)N[C@H](C(=O)N[C@H](C(=O)N[C@@H](CCCNC(=N)N)C(=O)N[C@@H](CCCCN)C(N)=O)[C@@H](C)CC)C(C)C)[C@@H](C)CC [XII, C8^α-retro-KR12-NH2] (Octanoyl-RLFDKIRQVIRK-NH2) | 8 (≈ 4.71 µM) | 256 (≈ 151 µM) | 128 (≈ 75.4 µM) | 64 (≈ 37.7 µM) | 32 (≈ 18.9 µM) | 32 (≈ 18.9 µM) | 32 (≈ 18.9 µM) | 32 (≈ 18.9 µM) | 64 (≈ 37.7 µM) | 8 (≈ 4.71 µM) | – | ≥512
KRIVQRIKDFLR-NH2 [I, KR12-NH2] | 128 | >512 | >512 | 128 | >512 | >512 | >512 | >512 | 256 | 512 | – | ≥512
